The values below are quoted from earlier work in patent EP3842031A1, “NEW THERAPEUTIC INHALATION SYSTEM PROVIDING REDUCED DOSE OF FLUTICASONE PROPIONATE AND SALMETEROL XINAFOATE WITH IMPROVED EFFICACY AND SAFETY PROFILE” (PRZEDSIEBIORSTWO FARMACEUTYCZNE LEK-AM SP Z O. O., priority 2019, dated 2021).

The conditions of data set [1]: in vivo.
For data set [2] the following is noted: compared with beclomethasone dipropionate, control of chronic asthma.

Turning to `CCC(=O)O[C@]1(C(=O)SCF)[C@H](C)C[C@H]2[C@@H]3C[C@H](F)C4=CC(=O)C=C[C@]4(C)[C@@]3(F)[C@@H](O)C[C@@]21C` [Fluticasone propionate], in data set [1], the oral bioavailability entry was “less than 1%”. The potency result in data set [2] was “twice the potency of the beclomethasone dipropionate”.
